Assay results reported in patent US20240109842A1, “ACRYLAMIDE COMPOUNDS” (OTSUKA PHARMACEUTICAL CO., LTD., priority 2019, published 2024).

Assays:
[1] = tested on: immortalized megakaryocyte cell line; test: Test Example 2: platelet production, shake culturing, with various aryl hydrocarbon receptor antagonists
[2] = tested on: immortalized megakaryocyte cell line; test: Test Example 1: platelet production, shake culturing; type: cell-based; conditions: compound 10 μM added at Day 3; for fold induction at 10 µM: Platelet, 144 h, DMSO added at cell seeding (no AhR antagonist), platelets (CD41, CD42a, CD42b-positive) counted after 6 days, read-out: Amount of platelet production (vs. Control); for Amount of platelet production (vs. Control): aryl hydrocarbon receptor antagonist Compound A5 0.1 μM added at cell seeding, counted after 6 days
Procedure: The immortalized megakaryocyte cell line obtained according to the method described in WO 2016/204256 was washed twice with D-PBS(−) and then cultured in medium not containing doxycycline to terminate forced expression (cultured under conditions where gene expression is OFF). Shake culturing at 100 rpm was performed in the following medium after the cells were seeded in a 125-mL polycarbonate Erlenmeyer flask (Corning #431143) at 25 mL/flask and a seeding density of 1×10^5 cells/mL. Culturing conditions were 37° C. and 5% CO2. The medium was obtained by adding the following components to IMDM serving as the basal medium (concentrations indicate final concentrations). • FBS 15% • L-Glutamine 2 mM • ITS 100-fold dilution • MTG 450 μM • Ascorbic acid 50 μg/mL • SCF 50 ng/mL • TA-316 0.1 μg/mL • ADAM inhibitor 15 μM • ROCK inhibitor 0.5 μM […] After culturing for 6 days in total, the number of platelets was measured. The measurement method was as follows. The same operation was performed for control. At 6 days after initiation of the culturing under conditions where gene expression was OFF, a part of the culture supernatant was collected, and suspended with the following antibody and Flow-Count Fluorospheres (Beckman Coulter #7547053) to perform staining. • APC-labeled anti-CD41 antibody (BioLegend #303710) • eFluor 450-labeled anti-CD42a antibody (eBioscience #48-0428-42) • PE-labeled anti-CD42b antibody (BioLegend #303906) At 30 minutes after staining, number of platelets (CD41, CD42a and CD42b-positive cells) was counted by using FACSVerse (manufactured by BD Japan) with Flow-Count Fluorospheres. The number of platelets was given as a percentage of the control.

[3] = Platelet, 144 h, read-out: Amount of platelet production (vs. Control)
[4] = comparative examples: only an aryl hydrocarbon receptor antagonist, no acrylamide compound, A1 0.75 μM, A2 0.1 μM, A3 10 μM, A4 1 μM, A5 to A8 0.1 μM
[5] = with aryl hydrocarbon receptor antagonist Compound A2 0.1 μM, otherwise as Test Example 1

| Structure (SMILES) | fold induction at 10 µM [2] | Amount of platelet production (vs. Control) [2] | further results |
| --- | --- | --- | --- |
| CC(C)n1cnc2c(NCCc3ccc(O)cc3)nc(-c3csc4ccccc34)nc21 [Compound A1, 4-[2-[[2-benzo[b]thien-3-yl-9-(1-methylethyl)-9H-purin-6-yl]amino]ethyl]phenol, reference compound] |  |  | fold induction at 0.75 µM [1, 3]: 1.5 to 6.5 |
| Cc1cc(-c2ccc(CC(=O)Nc3ccc(-c4cccnc4)cc3)cc2)ccn1 [Compound A3, 4-(2-Methyl-4-pyridinyl)-N-[4-(3-pyridinyl)phenyl]-benzeneacetamide, reference compound] |  |  | fold induction at 10 µM [1, 3]: 1.5 to 6.5 |
| Cc1ccccc1/N=N/c1ccc(NC(=O)c2ccnn2C)c(C)c1 [Compound A4, 1-Methyl-N-[2-methyl-4-[2-(2-methylphenyl)diazenyl]phenyl]-1H-pyrazole-5-carboxamide, reference compound] |  |  | fold induction at 1 µM [1, 3]: 1.5 to 6.5 |
| CC1(C)COc2nc3c(NCCc4ccc(O)c(-c5cccc(C#N)c5)c4)nc(-c4cncc(F)c4)nc3n21 [Compound A5, 3-[5-[2-[[2-(5-Fluoropyridin-3-yl)-8,8-dimethyl-7H-purino[8,9-b][1,3]oxazol-4-yl]amino]ethyl]-2-hydroxyphenyl]benzonitrile, reference compound] |  |  | Amount of platelet production (vs. Control) [1, 4]: + (the amount of platelets production increased by not less than 1.5 times and less than 6.5 times) |
| CC1(C)COc2nc3c(NCCc4ccc(O)c(-c5ccccc5F)c4)nc(-c4cncc(F)c4)nc3n21 [Compound A6, 2-(2-fluorophenyl)-4-[2-[[2-(5-fluoropyridin-3-yl)-8,8-dimethyl-7H-purino[8,9-b][1,3]oxazol-4-yl]amino]ethyl]phenol, reference compound] |  |  | Amount of platelet production (vs. Control) [1, 4]: + (the amount of platelets production increased by not less than 1.5 times and less than 6.5 times) |
| CC1(C)COc2nc3c(NCCc4ccc(O)c(-c5cncc(F)c5)c4)nc(-c4cncc(F)c4)nc3n21 [Compound A7, 2-(5-fluoropyridin-3-yl)-4-[2-[[2-(5-fluoropyridin-3-yl)-8,8-dimethyl-7H-purino[8,9-b][1,3]oxazol-4-yl]amino]ethyl]phenol, reference compound] |  |  | Amount of platelet production (vs. Control) [1, 4]: + (the amount of platelets production increased by not less than 1.5 times and less than 6.5 times) |
| CC1(C)CSc2nc3c(NCCc4ccc(O)c(-c5ccccc5F)c4)nc(-c4cncc(F)c4)nc3n21 [Compound A8, 2-(2-fluorophenyl)-4-[2-[[2-(5-fluoropyridin-3-yl)-8,8-dimethyl-7H-purino[8,9-b][1,3]thiazol-4-yl]amino]ethyl]phenol, reference compound] |  |  | fold induction at 0.1 µM [1, 3]: 1.5 to 6.5 |
| COc1cccc2c(/C=C/C(=O)NCCc3sccc3-c3ncccn3)c[nH]c12 [Example 45, (E)-3-(7-methoxy-1H-indol-3-yl)-N-[2-(3-pyrimidin-2-ylthiophen-2-yl)ethyl]prop-2-enamide] | 1.5 to 6.5 | ++ (not less than 6.5 times) |  |
| Cc1cccc2c(/C=C/C(=O)NCCc3ccccc3-c3ncccn3)c[nH]c12 [Example 46] | 1.5 to 6.5 | ++ (not less than 6.5 times) |  |
| O=C(/C=C/c1c[nH]c2ccccc12)NCCc1ccccc1-c1ncccn1 [Example 47, (E)-3-(1H-indol-3-yl)-N-[2-(2-pyrimidin-2-ylphenyl)ethyl]prop-2-enamide] | 1.5 to 6.5 | ++ (not less than 6.5 times) |  |
| O=C(/C=C/c1c[nH]c2c(Cl)cccc12)NCCc1ccccc1-c1ncccn1 [Example 48] | 1.5 to 6.5 | ++ (not less than 6.5 times) |  |
| COc1nccc2c(/C=C/C(=O)NCCc3ccccc3-c3ncccn3)c[nH]c12 [Example 49] | 1.5 to 6.5 | ++ (not less than 6.5 times) |  |
| COc1cccc2c(/C=C/C(=O)NCCc3ccccc3-c3ncc(F)cn3)c[nH]c12 [Example 51] | 1.5 to 6.5 | ++ (not less than 6.5 times) |  |
| COc1cccc2c(/C=C/C(=O)NCCc3ccccc3-c3ncc(C)cn3)c[nH]c12 [Example 52] | 1.5 to 6.5 | ++ (not less than 6.5 times) |  |
| COc1cccc2c(/C=C/C(=O)NCCc3ccccc3-c3ncccn3)cn(C)c12 [Example 53] | 1.5 to 6.5 | ++ (not less than 6.5 times) |  |
| COCCn1cc(/C=C/C(=O)NCCc2ccccc2-c2ncccn2)c2cccc(OC)c21 [Example 54] | 1.5 to 6.5 | ++ (not less than 6.5 times) |  |
| COC(=O)n1cc(/C=C/C(=O)NCCc2ccccc2-c2ncc(OC)cn2)c2cccc(OC)c21 [Example 55] | 1.5 to 6.5 | ++ (not less than 6.5 times) |  |
| COc1cnc(-c2ccccc2CCNC(=O)/C=C/c2c[nH]c3c(OC)cccc23)nc1 [Example 56] | 1.5 to 6.5 | ++ (not less than 6.5 times) |  |
| CCOc1ccccc1CCNC(=O)/C=C/c1c[nH]c2c(CC)cccc12 [Example 57] | 1.5 to 6.5 | ++ (not less than 6.5 times) | Amount of platelet production (vs. Control) [1, 5]: ++ (not less than 6.5 times) |
| CCOc1ccc(OC)cc1CCNC(=O)/C=C/c1c[nH]c2c(OC)cccc12 [Example 59] | 1.5 to 6.5 | ++ (not less than 6.5 times) | Amount of platelet production (vs. Control) [1, 5]: ++ (not less than 6.5 times) |
| CCOc1ccccc1CCNC(=O)/C=C/c1c[nH]c2c(C)cccc12 [Example 60] | 1.5 to 6.5 | ++ (not less than 6.5 times) | Amount of platelet production (vs. Control) [1, 5]: ++ (not less than 6.5 times) |
| CCOc1ccccc1CCNC(=O)/C=C/c1c[nH]c2c(OC)cccc12 [Example 61] | 1.5 to 6.5 | ++ (not less than 6.5 times) | Amount of platelet production (vs. Control) ([1]; with aryl hydrocarbon receptor antagonist Compound A1 0.75 μM, otherwise as Test Example 1): ++ (not less than 6.5 times); Amount of platelet production (vs. Control) [1, 5]: ++ (not less than 6.5 times); Amount of platelet production (vs. Control) ([1]; with aryl hydrocarbon receptor antagonist Compound A3 10 μM, otherwise as Test Example 1): ++ (not less than 6.5 times); Amount of platelet production (vs. Control) ([1]; with aryl hydrocarbon receptor antagonist Compound A4 1 μM, otherwise as Test Example 1): ++ (not less than 6.5 times); Amount of platelet production (vs. Control) ([1]; with aryl hydrocarbon receptor antagonist Compound A7 0.1 μM, otherwise as Test Example 1): ++ (not less than 6.5 times); Amount of platelet production (vs. Control) ([1]; with aryl hydrocarbon receptor antagonist Compound A8 0.1 μM, otherwise as Test Example 1): ++ (not less than 6.5 times) |
